Assay results taken from US5776957A, “Nornicotine enantiomers for use as a treatment for dopamine related conditions and disease states” (The University of Kentucky Research Foundation, priority 1996, dated 1998).

Assays:
[1] = hemodynamic function in conscious animals; type: in vivo; conditions: behaviorally active doses
[2] = cited from earlier work
[3] = rats; cited from earlier work
[4] = test system: rat and mouse striatal synaptosomes; conditions: Rapier, El-Bizri, Rowell; cited from earlier work

| SMILES | effect on hemodynamic function [1] | detection in urine of human smokers [2] | substitution for nicotine in drug discrimination [3] | plateau concentration of concentration-response curve [4] |
| --- | --- | --- | --- | --- |
| c1cncc([C@@H]2CCCN2)c1 [S(-) nornicotine, S-(-) nornicotine] | no adverse effective on hemodynamic function | detectable in the urine of human smokers | substitutes fully for nicotine | – |
| CN1CCC[C@H]1c1cccnc1 [S(-) nicotine] | – | – | – | 1 to 100 µM |
